Data reported in US20160311806A1, “4,4'-BIPHENYLDIYL-BIS-(1 H-IMIDAZOLYL) DERIVATIVES AS HEPATITIS HCV INHIBITORS” (BRISTOL-MYERS SQUIBB COMPANY, priority 2013, published 2016).
Read-outs that look alike come from different tables or passages of the source.

How the values were obtained:
HCV 1b genotype = test: HCV replicon assay, genotype 1b; assay type: cell-based; details: Hepatitis C virus, read-out: 1b LE (EC50)
Protocol: (§1) An HCV Replicon assay was utilized in the present disclosure, and was prepared, conducted and validated as described in commonly owned PCT/US2006/022197 and in O'Boyle et. al. Antimicrob Agents Chemother. 2005 April; 49(4):1346-53. Assay methods incorporating luciferase reporters have also been used as described (Apath.com).
(§2) HCV-neo replicon cells and replicon cells containing resistance substitutions in the NS5A region were used to test the currently described family of compounds. The compounds were determined to have differing degrees of reduced inhibitory activity on cells containing mutations vs. the corresponding inhibitory potency against wild-type cells. Thus, the compounds of the present disclosure can be effective in inhibiting the function of the HCV NS5A protein and are understood to be as effective in combinations as previously described in application PCT/US2006/022197 and commonly owned WO/04014852. It should be understood that the compounds of the present disclosure can inhibit multiple genotypes of HCV.

HCV 1a = test: HCV replicon assay, genotype 1a; assay type: cell-based; details: Hepatitis C virus, read-out: 1a LE (EC50)
Protocol: as §1, §2

| SMILES | EC50 (HCV 1b genotype; given as range class) [pM] | EC50 (HCV 1a; given as range class) [pM] | EC50 (HCV 1b genotype) [pM] | EC50 (HCV 1a) [pM] |
| --- | --- | --- | --- | --- |
| CC[C@@H]1C[C@@H]([C@H](NC(=O)OC)C(=O)N2[C@@H](C)CC[C@H]2c2ncc(-c3ccc(-c4ccc(-c5cnc([C@@H]6CC[C@H](C)N6C(=O)[C@@H](NC(=O)OC)[C@H]6C[C@@H](C)O[C@H](C7CC7)C6)[nH]5)cc4)cc3)[nH]2)C[C@@H](C)O1 [Example 1, methyl N-[(1S)-1-[(2S,4S,6R)-2-cyclopropyl-6-methyloxan-4-yl]-2-[(2S,5S)-2-{5-[4-(4-{2-[(2S,5S)-1-[(2S)-2-[(2R,4S,6R)-2-ethyl-6-methyloxan-4-yl]-2-[(methoxycarbonyl)amino]acetyl]-5-methylpyrrolidin-2-yl]-1H-imidazol-5-yl}phenyl)phenyl]-1H-imidazol-2-yl}-5-methylpyrrolidin-1-yl]-2-oxoethyl]carbamate] | 2 to 8 | 2 to 8 |  |  |
| CC[C@@H]1C[C@@H]([C@H](NC(=O)OC)C(=O)N2[C@@H](C)CC[C@H]2c2ncc(-c3ccc(-c4ccc(-c5cnc([C@@H]6CC[C@H](C)N6C(=O)[C@@H](NC(=O)OC)[C@H]6C[C@@H](C)O[C@H](C7CC7)C6)[nH]5)cc4)cc3)[nH]2)CCO1 [Example 2, methyl N-[(1S)-1-[(2S,4S,6R)-2-cyclopropyl-6-methyloxan-4-yl]-2-[(2S,5S)-2-{5-[4-(4-{2-[(2S,5S)-1-[(2S)-2-[(2R,4S)-2-ethyloxan-4-yl]-2-[(methoxycarbonyl)amino]acetyl]-5-methylpyrrolidin-2-yl]-1H-imidazol-5-yl}phenyl)phenyl]-1H-imidazol-2-yl}-5-methylpyrrolidin-1-yl]-2-oxoethyl]carbamate] |  |  | 5.76 | 4.52 |
| COC(=O)N[C@H](C(=O)N1[C@@H](C)CC[C@H]1c1ncc(-c2ccc(-c3ccc(-c4cnc([C@@H]5CC[C@H](C)N5C(=O)[C@H](NC(=O)OC)c5ccccc5)[nH]4)cc3)cc2)[nH]1)[C@H]1C[C@@H](C)O[C@H](C2CC2)C1 [Example 4, methyl N-[(1S)-1-[(2S,4S,6R)-2-cyclopropyl-6-methyloxan-4-yl]-2-[(2S,5S)-2-{5-[4-(4-{2-[(2S,5S)-1-[(2R)-2-[(methoxycarbonyl)amino]-2-phenylacetyl]-5-methylpyrrolidin-2-yl]-1H-imidazol-5-yl}phenyl)phenyl]-1H-imidazol-2-yl}-5-methylpyrrolidin-1-yl]-2-oxoethyl]carbamate] | 2 to 8 | 2 to 8 |  |  |
| COC(=O)N[C@H](C(=O)N1[C@@H](C)CC[C@H]1c1ncc(-c2ccc(-c3ccc(-c4cnc([C@@H]5CC[C@H](C)N5C(=O)[C@@H](NC(=O)OC)[C@H]5C[C@@H](C)O[C@H](C6CC6)C5)[nH]4)cc3)cc2)[nH]1)C(C)C [Example 3, methyl N-[(1S)-1-[(2S,4S,6R)-2-cyclopropyl-6-methyloxan-4-yl]-2-[(2S,5S)-2-{5-[4-(4-{2-[(2S,5S)-1-[(2S)-2-[(methoxycarbonyl)amino]-3-methylbutanoyl]-5-methylpyrrolidin-2-yl]-1H-imidazol-5-yl}phenyl)phenyl]-1H-imidazol-2-yl}-5-methylpyrrolidin-1-yl]-2-oxoethyl]carbamate] |  |  | 2.72 | 7.18 |
| COC(=O)N[C@H](C(=O)N1[C@@H](C)CC[C@H]1c1ncc(-c2ccc(-c3ccc(-c4cnc([C@@H]5CC[C@H](C)N5C(=O)[C@@H](NC(=O)OC)[C@H]5C[C@@H](C)O[C@H](C6CC6)C5)[nH]4)cc3)cc2)[nH]1)C1C[C@@H](C)O[C@H](C)C1 (stereo partly drawn) [Example 5, methyl N-[(1S)-1-[(2S,4S,6R)-2-cyclopropyl-6-methyloxan-4-yl]-2-[(2S,5S)-2-{5-[4-(4-{2-[(2S,5S)-1-[(2S)-2-[(2R,6R)-2,6-dimethyloxan-4-yl]-2-[(methoxycarbonyl)amino]acetyl]-5-methylpyrrolidin-2-yl]-1H-imidazol-5-yl}phenyl)phenyl]-1H-imidazol-2-yl}-5-methylpyrrolidin-1-yl]-2-oxoethyl]carbamate] | 2 to 8 | 2 to 8 |  |  |
